Laboratory results reported in US12473289B2, “Heterocyclic compounds as delta-5 desaturase inhibitors and methods of use” (Amgen Inc., priority 2019, dated 2025).
pIC50: −log10 of the molar value.

Key:
[1] = target: Delta-5-Desaturase (D5D) (Homo sapiens (Human), UniProt O60427); assay: In vitro measurement of Delta-5-Desaturase inhibitory activity using DGLA-CoA and Arachidonyl-CoA mass spectrometric assays; type: biochemical; details: membrane preparations of D5D-overexpressing HEK293 6E cells; averaged over at least two independent runs
Delta-5-Desaturase (D5D) (Homo sapiens (Human), UniProt O60427), sequence (O60427 whole entry, species assumed): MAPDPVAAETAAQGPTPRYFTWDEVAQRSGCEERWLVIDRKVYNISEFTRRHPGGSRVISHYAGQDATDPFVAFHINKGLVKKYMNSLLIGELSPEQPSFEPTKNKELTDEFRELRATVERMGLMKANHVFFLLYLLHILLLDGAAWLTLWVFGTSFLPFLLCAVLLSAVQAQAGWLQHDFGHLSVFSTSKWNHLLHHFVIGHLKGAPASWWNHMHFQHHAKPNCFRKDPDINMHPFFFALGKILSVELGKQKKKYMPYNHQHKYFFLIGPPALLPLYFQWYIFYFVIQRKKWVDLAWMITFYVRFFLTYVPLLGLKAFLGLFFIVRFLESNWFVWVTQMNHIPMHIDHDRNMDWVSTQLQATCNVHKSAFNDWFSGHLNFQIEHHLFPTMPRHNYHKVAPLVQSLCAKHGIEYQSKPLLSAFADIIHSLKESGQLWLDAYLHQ
Outline: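 Membranes from D5D-overexpressing HEK293 6E cells (10 μg/mL final) in Tris pH 7.5 with MgCl2, octyl glucoside and TCEP were mixed 1:1 with substrate solution (0.01 mM DGLA, 0.25 mM NADH, 0.25 mM ATP, 0.05 mM CoA) for 1 h at ambient temperature. RapidFire SPE-MS/MS MRM; IC50 by 4-parameter fit, ≥2 runs.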

[2] = target: Delta-5-Desaturase (D5D) (Mus musculus (Mouse), UniProt Q920L1); assay: In vivo measurement of Delta-5-Desaturase inhibitory activity (plasma AA/DGLA ratio in DIO mice); details: single oral dose 30 mg/kg, read-out: Average % D5D Inhibition expressed as Plasma Endogenous AA/DGLA Ratio
Delta-5-Desaturase (D5D) (Mus musculus (Mouse), UniProt Q920L1), sequence (Q920L1 whole entry): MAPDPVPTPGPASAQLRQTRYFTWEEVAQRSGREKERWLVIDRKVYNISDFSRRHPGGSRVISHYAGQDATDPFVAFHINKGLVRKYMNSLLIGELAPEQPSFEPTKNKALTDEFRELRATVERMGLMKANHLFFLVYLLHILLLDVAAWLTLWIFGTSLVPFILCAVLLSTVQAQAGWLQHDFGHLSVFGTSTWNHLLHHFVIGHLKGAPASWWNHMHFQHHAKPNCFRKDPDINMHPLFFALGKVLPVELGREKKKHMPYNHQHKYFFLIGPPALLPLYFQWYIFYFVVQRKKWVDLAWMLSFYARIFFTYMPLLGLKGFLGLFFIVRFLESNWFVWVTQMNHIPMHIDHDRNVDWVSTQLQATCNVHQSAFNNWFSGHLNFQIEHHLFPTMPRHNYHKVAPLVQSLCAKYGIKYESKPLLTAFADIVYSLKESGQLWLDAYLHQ
Protocol: In vivo Measurement of Delta-5-Desaturase Inhibitory Activity
Diet-induced obese (DIO; Jackson Laboratories strain #3800050) mice were used to screen for pharmacodynamic (PD) activity of test compounds. Generally, 14 to 24 week old DIO mice, were administered test compounds formulated in the vehicle of 2% hydroxypropyl methylcellulose (HPMC) and 1% Tween80. Animals were dosed on body weight by oral gavage with a single dose (30 mg/kg) for PD studies. Necropsy included plasma collection for PUFA analysis. 10 μl of plasma or standards diluted in surrogate matrix (65 g/l bovine serum albumin in Dulbecco's phosphate-buffered saline) were mixed with 10 μl of an internal standard (100 μM alpha-linolenic acid-d14 (ALA-d14, Cayman Chemical)) in a 96 well plate. 100 μl of 2N NAOH was added to the mixture for subsequent saponification at 65° C. for 1 hour. The mixture was then acidified with 50 μl of formic acid followed by two consecutive hexane extractions. Hexane (500 μl) was added and the mixture thoroughly mixed by vortexing, followed by centrifugation at 4,000 rpm for 15 min. The hexane phase was transferred to a new 1 ml 96 well plate and the remaining aqueous layer was extracted with hexane. The organic extracts were combined and the solvent was removed by placing the plate under nitrogen gas at 55° C. 250 μl of 90% methanol was added to the plate followed by vortexing for 2 minutes. 200 μl of the samples were transferred to a new 96 well polypropylene plate. The samples were analyzed on a LC-MS/MS for the following PUFAs: arachidonic acid (AA), dihomo-gamma-linolenic acid (DGLA), with ALA-d14 as the internal standard. Description of the LC-MS/MS method: 5 μl of sample was injected onto a Poroshell 120 EC-C18 3.0×50 mm, 1.9 μm id column. […] The PUFA peak areas were quantified by using the SCIEX Analyst software. […] The relative decrease of the AA/DGLA ratio of the test compound administered group relative to the vehicle administered group was calculated and used as an index for the degree of D5D inhibition.
The results presented in Table 27 were obtained using certain compounds described herein in the in vivo protocol described above.

pIC50 [1]	inhibition in vivo at 30 mg/kg [2] [%]	Compound
7.45	73	Nc1ccn2c(=O)c(-c3ccc(OCC(F)(F)F)cc3)c(C(F)(F)F)nc2n1 [Example 14-2, 8-amino-3-(4-(2,2,2-trifluoroethoxy)phenyl)-2-(trifluoromethyl)-4H-pyrimido[1,2-a]pyrimidin-4-one]
7.36	74	O=c1ccn2c(=O)c(-c3ccc(OCC(F)(F)F)cc3)c(C(F)(F)F)[nH]c2c1 [Example 10-1, 3-(4-(2,2,2-Trifluoroethoxy)phenyl)-2-(trifluoromethyl)-4H-pyrido[1,2-a]pyrimidine-4,8(1H)-dione]
7.62	52	O=c1c(-c2cnn(CC(F)(F)C(F)(F)F)c2)c(C(F)(F)F)nc2cc(CO)ccn12 [Example 13-1, 8-(Hydroxymethyl)-3-(1-(2,2,3,3,3-pentafluoropropyl)-1H-pyrazol-4-yl)-2-(trifluoromethyl)-4H-pyrido[1,2-a]pyrimidin-4-one]
7.94	79	COc1ccn2c(=O)c(-c3ccc(O[C@@H](C)C#N)cc3)c(C(F)(F)F)nc2c1 [Example 8-9, (2S)-2-(4-(8-methoxy-4-oxo-2-(trifluoromethyl)-4H-pyrido[1,2-a]pyrimidin-3-yl)phenoxy)propanenitrile]
7.57	60	COc1ccn2c(=O)c(-c3ccc(OCC(F)(F)F)nc3)c(C(F)(F)F)nc2c1 [Example 7-4]
8.40	79	[2H]C([2H])([2H])Oc1ccn2c(=O)c(-c3ccc(OCC(F)(F)F)cc3)c(C(F)(F)F)nc2c1 [Example 11-2, 8-(methyloxy-d3)-3-(4-(2,2,2-trifluoroethoxy)phenyl)-2-(trifluoromethyl)-4H-pyrido[1,2-a]pyrimidin-4-one]
8.25	77	O=c1c(-c2ccc(OCC(F)(F)F)cc2)c(C(F)(F)F)nc2cc(CO)ccn12 [Example 13-3, 8-(hydroxymethyl)-3-(4-(2,2,2-trifluoroethoxy)phenyl)-2-(trifluoromethyl)-4H-pyrido[1,2-a]pyrimidin-4-one]

Further lines, the molecule ahead of its results:

Compound	pIC50 [1]	inhibition in vivo at 30 mg/kg [2] [%]
O=c1c(-c2ccc(OCC(F)(F)F)cc2)c(C(F)(F)F)nc2ccccn12 [Example 1-42, 3-(4-(2,2,2-trifluoroethoxy)phenyl)-2-(trifluoromethyl)-4H-pyrido[1,2-a]pyrimidin-4-one]	7.98	64
COc1ccn2c(=O)c(-c3ccc(OCC(F)(F)F)cc3)c(C(F)F)nc2c1 [Example 1-15, 2-(difluoromethyl)-8-methoxy-3-(4-(2,2,2-trifluoroethoxy)phenyl)-4H-pyrido[1,2-a]pyrimidin-4-one]	7.91	70
COc1ccn2c(=O)c(-c3ccc(OCC(F)F)cc3)c(C(F)(F)F)nc2c1 [Example 1-10, 3-(4-(2,2-difluoroethoxy)phenyl)-8-methoxy-2-(trifluoromethyl)-4H-pyrido[1,2-a]pyrimidin-4-one]	8.10	75
COc1ccn2c(=O)c(-c3cnn(CCC(F)(F)F)c3)c(C(F)(F)F)nc2c1 [Example 1-69, 8-methoxy-2-(trifluoromethyl)-3-[1-(3,3,3-trifluoropropyl)pyrazol-4-yl]pyrido[1,2-a]pyrimidin-4-one]	7.82	71
O=c1c(-c2cnn(CC(F)(F)C(F)(F)F)c2)c(C(F)(F)F)nc2ccc(Cl)cn12 [Example 35, 7-Chloro-3-[1-(2,2,3,3,3-pentafluoropropyl)-1H-pyrazol-4-yl]-2-(trifluoromethyl)-4H-pyrido[1,2-a]pyrimidin-4-one]	8.42	75
COc1ccn2c(=O)c(-c3cnn(CC(C)(F)F)c3)c(C(F)(F)F)nc2c1 [Example 1-39, 3-(1-(2,2-difluoropropyl)-1H-pyrazol-4-yl)-8-methoxy-2-(trifluoromethyl)-4H-pyrido[1,2-a]pyrimidin-4-one]	7.37	62
COc1ccn2c(=O)c(-c3ccc(OCC(F)(F)F)c(F)c3)c(C(F)(F)F)nc2n1 [Example 1-73, 3-(3-fluoro-4-(2,2,2-trifluoroethoxy)phenyl)-8-methoxy-2-(trifluoromethyl)-4H-pyrimido[1,2-a]pyrimidin-4-one]	7.66	72
COc1ccn2c(=O)c(-c3ccc(OCC(F)F)cc3F)c(C(F)(F)F)nc2c1 [Example 1-41, 3-(4-(2,2-difluoroethoxy)-2-fluorophenyl)-8-methoxy-2-(trifluoromethyl)-4H-pyrido[1,2-a]pyrimidin-4-one]	7.60	63
[2H]C([2H])([2H])Oc1ccn2c(=O)c(-c3cnn(CC(F)(F)C(F)(F)F)c3)c(C(F)(F)F)nc2n1 [Example 3-2, 8-(methyloxy-d3)-3-(1-(2,2,3,3,3-pentafluoropropyl)-1H-pyrazol-4-yl)-2-(trifluoromethyl)-4H-pyrimido[1,2-a]pyrimidin-4-one]	7.47	67
COc1ccn2c(=O)c(-c3ccc(OCC(F)(F)F)cc3F)c(C(F)(F)F)nc2c1 [Example 1-20, 3-(2-fluoro-4-(2,2,2-trifluoroethoxy)phenyl)-8-methoxy-2-(trifluoromethyl)-4H-pyrido[1,2-a]pyrimidin-4-one]	8.05	78
CNc1ccn2c(=O)c(-c3ccc(OCC(F)(F)F)cc3)c(C(F)(F)F)nc2c1 [Example 1-29, 8-(methylamino)-3-(4-(2,2,2-trifluoroethoxy)phenyl)-2-(trifluoromethyl)-4H-pyrido[1,2-a]pyrimidin-4-one]	8.15	77
[2H]C([2H])([2H])Oc1ccn2c(=O)c(-c3ccc(OCC(F)(F)F)cc3)c(C(F)(F)F)nc2n1 [Example 1-59, 8-(methyloxy-d3)-3-(4-(2,2,2-trifluoroethoxy)phenyl)-2-(trifluoromethyl)-4H-pyrimido[1,2-a]pyrimidin-4-one]	7.84	73
COc1ccn2c(=O)c(-c3ccc(OCC(F)(F)F)cc3)c(C(F)(F)F)nc2c1 [Example 1-44, 8-methoxy-3-(4-(2,2,2-trifluoroethoxy)phenyl)-2-(trifluoromethyl)-4H-pyrido[1,2-a]pyrimidin-4-one]	8.47	76
CNc1ccn2c(=O)c(-c3cnn(CC(F)(F)C(F)(F)F)c3)c(C(F)(F)F)nc2c1 [Example 1-23, 8-(methylamino)-3-(1-(2,2,3,3,3-pentafluoropropyl)-1H-pyrazol-4-yl)-2-(trifluoromethyl)-4H-pyrido[1,2-a]pyrimidin-4-one]	7.70	57
COc1ccn2c(=O)c(-c3ccc(OCC4CC4)cc3)c(C(F)(F)F)nc2c1 [Example 1-8, 3-(4-(cyclopropylmethoxy)phenyl)-8-methoxy-2-(trifluoromethyl)-4H-pyrido[1,2-a]pyrimidin-4-one]	8.29	62
COc1ccn2c(=O)c(-c3ccc(OCC(F)(F)F)cc3)c(CF)nc2c1 [Example 1-58, 2-(fluoromethyl)-8-methoxy-3-(4-(2,2,2-trifluoroethoxy)phenyl)-4H-pyrido[1,2-a]pyrimidin-4-one]	7.18	74
CCc1nc2cc(OC)ccn2c(=O)c1-c1ccc(OCC(F)(F)F)cc1 [Example 1-77, 2-ethyl-8-methoxy-3-(4-(2,2,2-trifluoroethoxy)phenyl)-4H-pyrido[1,2-a]pyrimidin-4-one]	8.18	75
COc1ccn2c(=O)c(-c3ccc(OC(F)(F)F)cc3)c(C(F)(F)F)nc2n1 [Example 1-72, 8-methoxy-3-(4-(trifluoromethoxy)phenyl)-2-(trifluoromethyl)-4H-pyrimido[1,2-a]pyrimidin-4-one]	7.24	54
COc1ccn2c(=O)c(-c3ccc(OC(C)(C)C#N)cc3)c(C(F)(F)F)nc2c1 [Example 24, 2-(4-(8-Methoxy-4-oxo-2-(trifluoromethyl)-4H-pyrido[1,2-a]pyrimidin-3-yl)phenoxy)-2-methylpropanenitrile]	7.54	70
